# In US6737383B1, “Herbicidal oxadiazolidines” (priority 1999, dated 2004):
# Assays:
# black nightshade = experiment: Test E black nightshade; type: in vivo, Solanum nigra; conditions: Postemergence
# Description: (§1) Compounds evaluated in this test were formulated in a non-phytotoxic solvent mixture which included a surfactant and applied to plants that were in the 1- to 4-leaf stage (postemergence application). A mixture of sandy loam soil and greenhouse potting mix in a 60:40 ratio was used for the postemergence test.
# (§2) Plantings of these crops and weed species were adjusted to produce plants of appropriate size for the postemergence test. All plant species were grown using normal greenhouse practices. Crop and weed species include annual bluegrass (Poa annua), blackgrass (Alopecurus myosuroides), black nightshade (Solanum nigra), chickweed (Stellaria media), common poppy (Papaver rhoeas), deadnettle (Lamium amplexicaule), downy brome (Bromus tectorum), field violet (Viola arvensis), galium (Galium aparine), green foxtail (Setaria viridis), Italian ryegrass (Lolium multiflorum), jointed goatgrass (Aegilops cylindrica), kochia (Kochia scoparia), lambsquarters (Chenopodium album), littleseed canarygrass (Phalaris minor), rape (Brassica napus), redroot pigweed (Amaranthus retroflexus), Russian thistle (Salsola kali), scentless chamomile (Matricaria inodora), spring barley (Hordeum vulgare), sugar beet (Beta vulgaris), sunflower (Helianthus annuus), ivyleaf speedwell (Veronica hederaefolia), spring wheat (Triticum aestivum), winter wheat (Triticum aestivum), wild buckwheat (Polygonum convolvulus), wild mustard (Sinapis arvensis), wild oat (Avena fatua), windgrass (Apera spica-venti) and winter barley (Hordeum vulgare).
# (§3) Treated plants and untreated controls were maintained in a greenhouse for approximately 21 to 28 days, after which all treated plants were compared to untreated controls and visually evaluated. […] A dash response (-) means no test result.
# field violet = experiment: Test E field violet; type: in vivo, Viola arvensis; conditions: Postemergence
# Description: as §1, §2, §3
# green foxtail = experiment: Test E green foxtail; type: in vivo, Setaria viridis; conditions: Postemergence
# In short: (§4)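 Greenhouse-grown plants are treated (postemergence: 1- to 4-leaf stage, sandy loam/potting mix 60:40), then evaluated visually versus untreated controls some 21 to 28 days later.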
# lambsquarters = experiment: Test E lambsquarters; type: in vivo, Chenopodium album; conditions: Postemergence
# In short: as §4
# spring barley = experiment: Test E spring barley; type: in vivo, Hordeum vulgare; conditions: Postemergence
# In short: as §4
# sunflower = experiment: Test E sunflower; type: in vivo, Helianthus annuus; conditions: Postemergence
# In short: as §4
# ivyleaf speedwell = experiment: Test E postemergence ivyleaf speedwell; type: in vivo, Veronica hederaefolia
# Description: as §1, §2, §3
# spring wheat = experiment: Test E spring wheat; type: in vivo, Triticum aestivum; conditions: Postemergence
# Description: as §1, §2, §3
# wild oat = experiment: Test E wild oat; type: in vivo, Avena fatua; conditions: Postemergence
# In short: as §4
# rape = experiment: Test E rape; type: in vivo, Brassica napus; conditions: Preemergence
# redroot pigweed [1] = experiment: Test E redroot pigweed; type: in vivo, Amaranthus retroflexus; conditions: Preemergence
# sugar beet = experiment: Test E sugar beet; type: in vivo, Beta vulgaris; conditions: Preemergence
# wild mustard = experiment: Test E wild mustard; type: in vivo, Sinapis arvensis; conditions: Preemergence
# field bindweed = experiment: Test C postemergence field bindweed; type: in vivo, Convolvulus arvensis; conditions: 0 to 100 scale, 0 no effect, 100 complete control
# Description: as §1, with “grown for various periods of time before treatment” for “in the 1- to 4-leaf stage”
# (§5) Plantings of these crops and weed species were adjusted to produce plants of appropriate size for the postemergence test. All plant species were grown using normal greenhouse practices. Crop and weed species include arrowleaf sida (Sida rhombifolia), barnyardgrass (Echinochloa crus-galli), cocklebur (Xanthium strumarium), common ragweed (Ambrosia elatior), corn (Zea mays), cotton (Gossypium hirsutum), eastern black nightshade (Solanum ptycanthum), fall panicum (Panicum dichotomiflorum), field bindweed (Convolvulus arvensis), giant foxtail (Setaria faberii), hairy beggarticks (Bidens pilosa), ivyleaf morningglory (Ipomoea hederacea), johnsongrass (Sorghum halepense), ladysthumb smartweed (Polygonum persicaria), lambsquarters (Chenopodium album), large crabgrass (Digitaria sanguinalis), purple nutsedge (Cyperus rotundus), redroot pigweed (Amaranthus retroflexus), soybean (Glycine max), surinam grass (Brachiaria decumbens), velvetleaf (Abutilon theophrasti) and wild poinsettia (Euphorbia heterophylla).
# (§6) Treated plants and untreated controls were maintained in a greenhouse for approximately 14, to 21 days, after which all treated plants were compared to untreated controls and visually evaluated. Plant response ratings, summarized in Table C, were based upon a 0 to 100 scale where 0 was no effect and 100 was complete control. A dash response (−) means no test result.
# purple nutsedge = experiment: Test C postemergence purple nutsedge; type: in vivo, Cyperus rotundus; conditions: 0 to 100 scale, 0 no effect, 100 complete control
# Description: as §1, with “grown for various periods of time before treatment” for “in the 1- to 4-leaf stage”
# as §5, §6
# redroot pigweed [2] = experiment: Test C postemergence redroot pigweed; type: in vivo, Amaranthus retroflexus; conditions: 0 to 100 scale, 0 no effect, 100 complete control
# Description: as §1, with “grown for various periods of time before treatment” for “in the 1- to 4-leaf stage”
# as §5, §6
# wild poinsettia = experiment: Test C postemergence wild poinsettia; type: in vivo, Euphorbia heterophylla; conditions: 0 to 100 scale, 0 no effect, 100 complete control
# In short: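 Scores (0 = no effect, 100 = complete control) come from visual comparison with untreated controls after about 14–21 days. Spray formulation was a non-phytotoxic solvent mixture including surfactant; plants grew in a 60:40 sandy loam–potting mix blend.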
# [3] = Rate 250 g/ha, 0 to 100 scale (0 no effect, 100 complete control)
# [4] = Rate 500 g/ha, 0 to 100 scale, 0 no effect, 100 complete control
# [5] = Rate 125 g/ha, 0 to 100 scale (0 no effect, 100 complete control)
# [6] = Rate 500 g/ha, 0 to 100 scale where 0 is no effect and 100 is complete control
# [7] = Rate 250 g/ha, 0 to 100 scale where 0 is no effect and 100 is complete control
smiles,measurement,setting,value
CC(C)N(C(=O)n1oc(=O)n(C(C)C)c1=O)c1ccc(Cl)cc1 [Compound 114],"Plant response rating, Blk nightshade","black nightshade; Rate 125 g/ha, 0 to 100 scale",50
same,"Plant response rating, Blk nightshade",black nightshade; [3],40
same,"Plant response rating, Blk nightshade",black nightshade; [4],80
same,"Plant response rating, Field violet","field violet; Rate 125 g/ha, 0 to 100 scale",0
same,"Plant response rating, Field violet",field violet; [3],0
same,"Plant response rating, Field violet",field violet; [4],15
same,"Plant response rating, Green foxtail","green foxtail; Rate 125 g/ha, 0 to 100 scale",20
same,"Plant response rating, Green foxtail",green foxtail; [3],50
same,"Plant response rating, Green foxtail",green foxtail; [4],90
same,"Plant response rating, Lambsquarters","lambsquarters; Rate 125 g/ha, 0 to 100 scale",30
same,"Plant response rating, Lambsquarters",lambsquarters; [3],30
same,"Plant response rating, Lambsquarters",lambsquarters; [4],40
same,"Plant response rating, Spring Barley","spring barley; Rate 125 g/ha, 0 to 100 scale",20
same,"Plant response rating, Spring Barley",spring barley; [3],30
same,"Plant response rating, Spring Barley",spring barley; [4],35
same,"Plant response rating, Sunflower","sunflower; Rate 125 g/ha, 0 to 100 scale",10
same,"Plant response rating, Sunflower",sunflower; [3],10
same,"Plant response rating, Sunflower",sunflower; [4],15
same,"Plant response rating, Veronica hedera","ivyleaf speedwell; Rate 125 g/ha, 0 to 100 scale",10
same,"Plant response rating, Veronica hedera",ivyleaf speedwell; [3],50
same,"Plant response rating, Veronica hedera",ivyleaf speedwell; [4],70
same,"Plant response rating, Spring Wheat","spring wheat; Rate 125 g/ha, 0 to 100 scale",10
same,"Plant response rating, Spring Wheat",spring wheat; [3],20
same,"Plant response rating, Spring Wheat",spring wheat; [4],30
same,"Plant response rating, Wild oat","wild oat; Rate 125 g/ha, 0 to 100 scale",0
same,"Plant response rating, Wild oat",wild oat; [3],0
same,"Plant response rating, Wild oat",wild oat; [4],0
same,"Plant response rating, Rape",rape; [5],0
same,"Plant response rating, Rape","rape; Rate 250 g/ha, 0 to 100 scale",20
same,"Plant response rating, Rape",rape; [6],50
same,"Plant response rating, Redroot pigweed",redroot pigweed [1]; [5],50
same,"Plant response rating, Redroot pigweed","redroot pigweed [1]; Rate 250 g/ha, 0 to 100 scale",65
same,"Plant response rating, Redroot pigweed",redroot pigweed [1]; [6],100
same,"Plant response rating, Sugar beet",sugar beet; [5],20
same,"Plant response rating, Sugar beet","sugar beet; Rate 250 g/ha, 0 to 100 scale",40
same,"Plant response rating, Sugar beet",sugar beet; [6],50
same,"Plant response rating, Wild mustard",wild mustard; [5],50
same,"Plant response rating, Wild mustard","wild mustard; Rate 250 g/ha, 0 to 100 scale",40
same,"Plant response rating, Wild mustard",wild mustard; [6],90
CCn1c(=O)on(C(=O)N(c2ccccc2)C(C)C)c1=O [Compound 117],Plant response rating Field bindweed,field bindweed; Rate 140 g/ha,0
same,Plant response rating Field bindweed,field bindweed; Rate 280 g/ha,30
same,Plant response rating Field bindweed,field bindweed; Rate 560 g/ha,30
same,Plant response rating Field bindweed,field bindweed; Rate 1120 g/ha,40
same,"Plant response rating, Purple nutsedge",purple nutsedge; Rate 140 g/ha,0
same,"Plant response rating, Purple nutsedge",purple nutsedge; Rate 280 g/ha,0
same,"Plant response rating, Purple nutsedge",purple nutsedge; Rate 560 g/ha,10
same,"Plant response rating, Purple nutsedge",purple nutsedge; Rate 1120 g/ha,80
same,"Plant response rating, Redroot pigweed",redroot pigweed [2]; Rate 140 g/ha,0
same,"Plant response rating, Redroot pigweed",redroot pigweed [2]; Rate 280 g/ha,0
same,"Plant response rating, Redroot pigweed",redroot pigweed [2]; Rate 560 g/ha,0
same,"Plant response rating, Redroot pigweed",redroot pigweed [2]; Rate 1120 g/ha,30
same,Plant response rating Wild poinsettia,wild poinsettia; Rate 140 g/ha,0
same,Plant response rating Wild poinsettia,wild poinsettia; Rate 280 g/ha,0
same,Plant response rating Wild poinsettia,wild poinsettia; Rate 560 g/ha,0
same,Plant response rating Wild poinsettia,wild poinsettia; Rate 1120 g/ha,0
CC(C)N(C(=O)n1oc(=O)n(C(C)C)c1=O)c1ccc(F)cc1 [Compound 131],Plant response rating Field bindweed,field bindweed; Rate 140 g/ha,0
same,Plant response rating Field bindweed,field bindweed; Rate 280 g/ha,0
same,Plant response rating Field bindweed,field bindweed; Rate 560 g/ha,0
same,Plant response rating Field bindweed,field bindweed; Rate 1120 g/ha,60
same,"Plant response rating, Purple nutsedge",purple nutsedge; Rate 140 g/ha,0
same,"Plant response rating, Purple nutsedge",purple nutsedge; Rate 280 g/ha,0
same,"Plant response rating, Purple nutsedge",purple nutsedge; Rate 560 g/ha,0
same,"Plant response rating, Purple nutsedge",purple nutsedge; Rate 1120 g/ha,80
same,"Plant response rating, Redroot pigweed",redroot pigweed [2]; Rate 140 g/ha,10
same,"Plant response rating, Redroot pigweed",redroot pigweed [2]; Rate 280 g/ha,10
same,"Plant response rating, Redroot pigweed",redroot pigweed [2]; Rate 560 g/ha,20
same,"Plant response rating, Redroot pigweed",redroot pigweed [2]; Rate 1120 g/ha,30
same,Plant response rating Wild poinsettia,wild poinsettia; Rate 140 g/ha,0
same,Plant response rating Wild poinsettia,wild poinsettia; Rate 280 g/ha,10
same,Plant response rating Wild poinsettia,wild poinsettia; Rate 560 g/ha,30
same,Plant response rating Wild poinsettia,wild poinsettia; Rate 1120 g/ha,80
same,"Plant response rating, Blk nightshade","black nightshade; Rate 62 g/ha, 0 to 100 scale",50
same,"Plant response rating, Blk nightshade","black nightshade; Rate 125 g/ha, 0 to 100 scale",50
same,"Plant response rating, Blk nightshade",black nightshade; [4],70
same,Blk nightshade plant response rating,black nightshade; [7],60
same,"Plant response rating, Field violet","field violet; Rate 62 g/ha, 0 to 100 scale",60
same,"Plant response rating, Field violet","field violet; Rate 125 g/ha, 0 to 100 scale",0
same,"Plant response rating, Field violet",field violet; [4],0
same,Field violet plant response rating,field violet; [7],0
same,"Plant response rating, Green foxtail","green foxtail; Rate 62 g/ha, 0 to 100 scale",55
same,"Plant response rating, Green foxtail","green foxtail; Rate 125 g/ha, 0 to 100 scale",70
same,"Plant response rating, Green foxtail",green foxtail; [4],75
same,Green foxtail plant response rating,green foxtail; [7],50
same,"Plant response rating, Lambsquarters","lambsquarters; Rate 62 g/ha, 0 to 100 scale",0
same,"Plant response rating, Lambsquarters","lambsquarters; Rate 125 g/ha, 0 to 100 scale",0
same,"Plant response rating, Lambsquarters",lambsquarters; [4],0
same,Lambsquarters plant response rating,lambsquarters; [7],0
same,"Plant response rating, Spring Barley","spring barley; Rate 62 g/ha, 0 to 100 scale",5
same,"Plant response rating, Spring Barley","spring barley; Rate 125 g/ha, 0 to 100 scale",0
same,"Plant response rating, Spring Barley",spring barley; [4],20
same,Spring Barley plant response rating,spring barley; [7],0
same,"Plant response rating, Sunflower","sunflower; Rate 62 g/ha, 0 to 100 scale",10
same,"Plant response rating, Sunflower","sunflower; Rate 125 g/ha, 0 to 100 scale",0
same,"Plant response rating, Sunflower",sunflower; [4],0
same,Sunflower plant response rating,sunflower; [7],0
same,"Plant response rating, Veronica hedera","ivyleaf speedwell; Rate 125 g/ha, 0 to 100 scale",0
same,Veronica hedera plant response rating,ivyleaf speedwell; [7],0
same,"Plant response rating, Veronica hedera",ivyleaf speedwell; [4],20
same,"Plant response rating, Spring Wheat","spring wheat; Rate 62 g/ha, 0 to 100 scale",5
same,"Plant response rating, Spring Wheat","spring wheat; Rate 125 g/ha, 0 to 100 scale",0
same,"Plant response rating, Spring Wheat",spring wheat; [4],40
same,Spring Wheat plant response rating,spring wheat; [7],0
same,"Plant response rating, Wild oat","wild oat; Rate 62 g/ha, 0 to 100 scale",40
same,"Plant response rating, Wild oat","wild oat; Rate 125 g/ha, 0 to 100 scale",0
same,"Plant response rating, Wild oat",wild oat; [4],70
same,Wild oat plant response rating,wild oat; [7],20
same,"Plant response rating, Rape",rape; [5],70
same,Rape plant response rating (0 to 100 scale),rape; Rate 250 g/ha,75
same,"Plant response rating, Rape",rape; [6],90
same,"Plant response rating, Redroot pigweed",redroot pigweed [1]; [5],100
same,Redroot pigweed plant response rating (0 to 100 scale),redroot pigweed [1]; Rate 250 g/ha,100
same,"Plant response rating, Redroot pigweed",redroot pigweed [1]; [6],95
same,"Plant response rating, Sugar beet",sugar beet; [5],80
same,Sugar beet plant response rating (0 to 100 scale),sugar beet; Rate 250 g/ha,60
same,"Plant response rating, Sugar beet",sugar beet; [6],90
same,"Plant response rating, Wild mustard",wild mustard; [5],60
same,Wild mustard plant response rating (0 to 100 scale),wild mustard; Rate 250 g/ha,100
same,"Plant response rating, Wild mustard",wild mustard; [6],100
